One molecule from patent US20050124634A1, “1,4-dihydropyridine compounds, pharmaceutical compositions, and methods for the treatment of cardiovascular disease” (MYOGEN, INC., priority 2003, published 2005) can be followed below.

The subject of one assay is α-MyHC protein levels. The experiment in a line: α-MyHC cytoblot assay in neonatal rat ventricular myocytes (NRVM). The class given is cell-based. The following applies: NRVM, 3 days. Here is the method: FIG. 1 Concentration-dependent effect of Compound 1 on α-MyHC protein levels in the cytoblot assay. NRVM are cultured for 3 days in serum-free medium in the presence of differing amounts of Compound 1. At the end of the culture period, NRVM are fixed and analyzed for α-MyHC protein levels using the BA-G5 monoclonal antibody specific for α-MyHC. Results are collected as RLU using a Packard Fusion Plate reader, and normalized to the signal from samples cultured in the absence of compound (control, set to 100%).
Preparation and culture of neonatal rat ventricular myocytes (NRVM) was performed by removing hearts from 1-3 day old rat neonatal pups, along with the atria and lungs. The ventricles were cut into smaller pieces and digested 3 times with collagenase for 20-30 min at 37° C. The myocytes were then separated from other cell types using a Percoll gradient. The myocyte layer was collected, washed 2 times, and plated on tissue culture grade 10 cm Petri dishes for 1-2 hrs. The non-adherent cells (myocytes) were removed and plated in Costar clear view 96 well plates coated with 0.2% gelatin for at least 2 hrs. The gelatin solution was removed, and the myocytes were resuspended in DMEM high glucose media (Mediatech) containing 10% charcoal/dextran treated FBS (Hyclone) and 1% Penicillin-Streptomycin-Glutamine (PSG, Gibco). Ten thousand NRVM were plated per well in a 100 μl volume, and incubated overnight at 37° C. in 5% CO2 in air. The following day, the media was replaced with 100 μl of serum-free DMEM high glucose medium supplemented with PSG and 0.3% Nutridoma-SP (Roche).
Compounds were reconstituted in DMSO at 30 mM, and aliquots were stored at −20° C. A 1:1000 dilution was prepared in serum-free DMEM medium supplemented with PSG and 0.3% Nutridoma, and sonicated for 5 min at room temperature. After sonication, additional 3 fold dilutions were prepared in the same medium. Diluted compound was then added to the NRVM cultures in a volume of 100 μl. A 100 mM thyroid hormone stock solution (T3, Calbiochem) was prepared in 100 mM NaOH and added at a final concentration of 3 nM in DMEM medium supplemented with PSG and 0.3% Nutridoma-SP (Roche). NRVM were cultured for 3 days before detection of α-myosin heavy chain (α-MyHC) protein levels in the cytoblot assay.
For the α-MyHC cytoblot assay, NRVM cultures were analyzed for α-MyHC protein levels after 3 days of incubation. NRVM were washed 2 times with PBS, fixed with methanol for 30 min at 4° C., and washed an additional 2 times with PBS. Blocking solution consisting of PBS with 1% bovine serum albumin (BSA, Fisher Biotech) was added for 1 hr at room temperature before addition of a saturating amount of supernatant containing an α-MyHC specific antibody for 60 min at room temperature (BA-G5 hybridoma, ATTC). Two washes were performed with PBS/1% BSA, and a 1:500 dilution of HRP-goat anti-mouse IgG (Southern Biotech) diluted in PBS/1% BSA was added for 60 min at room temperature. Excess antibody was removed with 3 PBS washes, and a chemiluminescent substrate was added (Pierce SuperSignal West Pico Chemiluminscent Substrate) for 5 min before quantitation on a Packard Fusion Plate Reader.
As shown above in Table 1, Compound 1 increased α-MyHC protein levels as determined by an α-MyHC cytoblot assay. Compound 1 was added to NRVM at concentration ranging from 3 nM to 30 μM. After 3 days of incubation with NRVM, α-MyHC protein levels were detected in the cytoblot assay and quantitated (FIG. 1). […] An increase in α-MyHC protein levels was first detected beginning at 30 nM, with a maximal response observed at 3 μM. In six independent experiments, the concentration of Compound 1 that gave a half-maximal response was on average 60 nM.

Another assay deals with α-MyHC protein. Nature of the assay: α-MyHC protein levels in NRVM by Western blotting. The class given is cell-based, rat. The following applies: NRVM stimulated 3 days; Compound 1 10 nM to 10 μM. Here is the method: FIG. 2 Effect of Compound 1 on α-MyHC protein levels as detected by Western blotting. NRVM are stimulated with Compound 1 at different concentrations for 3 days. Protein extracts are prepared, proteins are separated by SDS-PAGE electrophoresis, transferred to PVDF membrane, and detected with an anti-α-MyHC monoclonal antibody.
As an independent measure of changes in α-MyHC protein levels, NRVM stimulated with Compound 1 were analyzed for α-MyHC protein levels by Western blotting. Protein extracts prepared from NRVM stimulated with a range of concentrations of Compound 1 from 10 nM to 10 μM were separated by SDS-PAGE and transferred to PVDF membrane. Levels of α-MyHC protein were detected by Western blotting using the same anti-α-MyHC monoclonal antibody used in the cytoblot assay. […] This experiment verified that the changes in α-MyHC protein detected in the cytoblot assay were also evident by Western blotting.

The subject of assay [1] is secretion of atrial natriuretic factor. Nature of the assay: Anti-hypertrophic activity in NRVM, ANF ELISA (ANF secretion). The class given is cell-based, rat. Conditions: Rattus norvegicus, read-out: IC50 of the ANF ELISA (antihypertrophic activity). As to the method:
Anti-hypertrophic Activity of Racemic Compound 1 and Purified Enantiomers of Compound 1. Neonatal rat ventricular myocytes (NRVM) were isolated from 1 to 3 day-old Sprague-Dawley rats using enzymatic digestion and myocyte enrichment techniques. NRVM were cultured in serum-containing media for 18 hours. For the continuation of culture, serum-free media was used. Hypertrophy of NRVM was induced using pharmacological stimuli, including phenylephrine, endothelin-1, and […]. Hypertrophic responses were determined using methods including the following: measurement of total cellular protein; secretion of atrial natriuretic factor; determination of cell volume; determination of the expression of so-called fetal genes such as atrial natriuretic factor, beta-myosin heavy chain and alpha-skeletal actin. ANF secretion was the most sensitive assay for measuring hypertrophy, and the IC50 of the ANF ELISA was the measurement used to determine antihypertrophic activity.

SMILES strings stand for the structures.

For the molecule `CC(=O)C1=C(C)NC(SCC(=O)c2cccc([N+](=O)[O-])c2)=C(C#N)C1c1ccccc1Cl` (racemic) [Compound 1], the “% increase of a-MyHC over baseline at 10 mM Cpd” value in the assay with α-MyHC protein levels (10 mM Cpd) amounted to 206%. In the assay on α-MyHC protein levels (tested 3 nM to 30 μM), the “concentration at which an increase in α-MyHC protein levels was first detected” value is on record as 30 nM and the “concentration at which maximal response was observed” value was 3 µM. Besides, the EC50 in the assay with α-MyHC protein levels (Rattus norvegicus, Ventricular myocyte, 72 h, average of six independent experiments, read-out: concentration that gave a half-maximal response (α-MyHC protein levels)) worked out at 60 nM. Further, the “α-MyHC protein levels by Western blotting” value in the assay with α-MyHC protein is on record as “increasing amounts of α-MyHC protein were observed with increasing amounts of Compound 1”. In addition, the IC50 in assay [1] was determined as 427 nM.
